Nine molecules from US6833445B2, “Guanidinylation, guanidinoglycosides, uses, and methods of assaying their activity” (The Regents of the University of California, priority 2000, dated 2004) can be followed below.

Structures are written as SMILES. pIC50: −log10 of the molar value.

Test [1] concerns the target HIV-1 Rev protein RNA recognition element (RRE). Nature of the test: Solid-phase assay: displacement of fluorescent Rev peptide from immobilized RRE. The note with it: for (e) Ratio (c)/(b): IC50 with polyA-polyU divided by IC50 without competitor, proportional to RRE selectivity; for change of ratio (c)/(b) upon guanidinylation: decrease = more selective for the RRE than amino precursor. It counts as binding. The text has this:
To facilitate the discovery of active guanidinoglycosides an assay system using HIV-1 response elements can be used. For example, RRE-specific binders as well as TAR specific binders can be identified using the methods of the present invention. The present invention provides a rapid screening assay and method depicted in FIG. 4. The Rev-RRE assay relies on the release of a fluorescently tagged Rev fragment from an immobilized RRE-Rev complex and can be performed under various stringency levels. The assay can be conducted in the presence of competing RNA molecules, other potential cellular targets, or cellular extracts. Only high affinity ligands can effectively compete with the bound Rev34-50 peptide (Kd is approximately 1 nM), thus releasing the highly fluorescent molecules into solution. Non-selective binders will be scavenged by competitor molecules present in solution.
In one embodiment, the present invention provides an assay for identifying a test compound which binds to RRE. The assay includes an immobilized RRE, a detectably labeled Rev, and a test compound. A test compound that liberates the labeled Rev due to competitive binding to the RRE results in an increase in the labeled Rev in the supernatant of the assay. Accordingly, following incubation of immobilized RRE, a labeled Rev, and a test compound, the supernatant is measured and the amount of label in the supernatant is determined. The amount of label in the supernatant is indicative of the degree or ability of the test compound to bind to the RRE or REV polypeptide. By comparing the amount of label in the supernatant with the amount in a control or standard sample, one can identify a test compound which effectively competes with the Rev for binding to RRE. […] In the depicted embodiment of FIG. 4 the ternary complex containing a fluorescently tagged Rev peptide bound to an immobilized RRE is incubated with the test compound (e.g., a potential competitor, binding agent or inhibitor)under conditions and in the presence of competing RNA molecules n a microcentrifuge filter tube. After incubation, the mixture is filtered and the filtrate is illuminated. In the presence of a strong and selective RRE binder, the fluorescently labeled peptide will be released from the beads into solution and the filtrate will become fluorescent.
The basic principle of the assay systems used to identify compounds that inhibit binding of Rev to RRE or compounds that interact with RRE involves preparing a reaction mixture containing the target (e.g., RRE) and the binding partner (e.g., labeled-Rev) under conditions and for a time sufficient to allow the two to interact and bind, thus form a complex. In order to test a compound for inhibitory activity, the reaction mixture is prepared in the presence and absence of the test compound. The test compound can be initially included in the reaction mixture, or can be added at a time subsequent to the addition of the RRE and its binding partner, Rev. Control reaction mixtures are incubated without the test compound or with a placebo. The presence of labeled-Rev that is not bound to RRE over that amount found in a control or standard sample is indicative of a test compound that competes with Rev for binding to RRE.
A novel solid-phase assembly was used to evaluate the RNA specificity of the new derivatives. This assay relies on the displacement of a fluorescent Rev peptide from a solid-phase immobilized RRE and can be performed in the presence of competing nucleic acids. Table 4 (columns b-d) summarizes the IC50 values determined by this method. By comparing IC50 values measured in the absence of any competitors to the values measured in the presence of DNA or RNA, a quantitative measure for the relative selectivity of each ligand can be made. Aminoglycosides have a substantial affinity to poly A-poly U duplex RNA (compare column b to c, Table 4). […] For neomycin, this ratio increases upon guanidinylation, indicating a lower RRE selectivity. […]

The target is the same in test [2]. Nature of the test: Fluorescence anisotropy: displacement of fluorescein-labeled Rev peptide from the RRE in solution. It counts as binding. The note with it: for pIC50: Fluorescence Anisotropy (Table 4), read-out: IC50 (a) Anisotrophy; for IC50: Fluorescence Anisotropy; for increase in inhibitory activity upon guanidinylation relative to the parent compound: fluorescence anisotropy IC50, guanidinylated vs parent. The text has this: In a modification of the above assay, the solid support aspect of the above embodiment is removed. The biophysical characteristics of potential inhibitory test compounds can be detected by fluorescence anisotropy as depicted in FIG. 5. The RRE-bound fluorescent peptide has a slower Brownian tumbling motion relative to the free peptide in solution. Upon displacement of the fluorescently labeled Rev from the RRE by a competing inhibitor, a decrease in the anisotropy value is observed. The displacement of the labeled-Rev can be followed by monitoring the anisotropy at the emission wavelength of the Rev34-50-bound fluorophore.
The HIV-1 Rev-RRE interaction was used to examine the impact of guanidinylation upon RNA binding, and to probe the potential antiviral activity of these compounds. The binding of Rev to the RRE (Rev response element) is responsible for the export of unspliced and singly spliced HIV genomic RNA out of the host nucleus. This essential protein-RNA interaction remains an important, and nonutilized, therapeutic target. The high-affinity Rev binding site on the RRE has been localized to the purine-rich bulge. The binding of Rev to the RRE is governed by the arginine-rich fragment, Rev34-50. Key guanidinium groups make direct contacts with the RNA platform and are essential for the specific binding of Rev to the RRE. Fluorescence anisotropy has been employed to determine the affinity of the new derivatives to the RRE in solution. The RRE-bound fluorescent Rev peptide has a slower Brownian tumbling motion relative to the free peptide. Upon displacement of the fluorescein-labeled Rev peptide from the RRE by an inhibitor, a decrease in the anisotropy value is observed. Table 4 (column a) compares the IC50 values of the guanidinoglycosides to the aminoglycosides. Guanidinylation of kanamycin A, kanamycin B, and tobramycin results in a greater than 10-fold increase in inhibitory activity relative to the parent compounds. A 5-fold increase in activity is observed upon guanidinylation of neomycin B and paromomycin.
(Polarisation of emitted light reports the rotation of a fluorescent probe.)

Another test concerns HIV-1. Nature of the test: Inhibition of viral replication in HIV-1-infected CD4+ HeLa cells (plaque formation). It counts as cell-based. The protocol: By converting aminoglycosides into guanidinoglycosides the biological activities of these glycosides were dramatically affected. Neomycin B was reported to be an in vivo and in vitro inhibitor of Rev-RRE binding, as well as an effective inhibitor of HIV-1 replication in vivo. The ability of guanidinoneomycin B and guanidinotobramycin to inhibit viral replication in HIV-1-infected CD4+ HeLa cells was measured and compared to the antiviral activities of neomycin B and tobramycin (FIG. 6). As evidenced by the dose-dependent decrease in plaque formation, the guanidinoglycosides inhibit HIV replication with activities approximately 100 times higher than their amino precursors (FIG. 6). The antiviral activity of the guanidinoglycosides may be related to their ability to bind the RRE with high affinity and specificity, thus preventing the HIV-1 Rev-RRE interaction and viral replication.

Where [3] appears, read: 15 ug/mL plasmid DNA (pGEM), read-out: IC50 (d) Solid-Phase + DNA.
The mark [4] stands for this setting: 15 ug/mL polyA-polyU duplex RNA, read-out: IC50 (c) Solid-Phase + poly A polyU.
Setting [5] is: Solid-phase, no competitor (Table 4), read-out: IC50 (b) Solid-Phase.
Where [6] appears, read: guanidino form of the glycoside (Table 3), read-out: IC50 (uM) guandino form.
[7] abbreviates: amino form of the glycoside (Table 3), read-out: IC50 (uM) amino form.

As to `NC[C@H]1O[C@H](O[C@H]2[C@H](O)[C@@H](O[C@H]3O[C@H](CO)[C@@H](O)[C@H](N)[C@H]3O)[C@H](N)C[C@@H]2N)[C@H](N)[C@@H](O)[C@@H]1O` [KanamycinB, Kanamycin B], the pIC50 in test [1] (setting [3]) was 4.05; in test [1] (setting [4]), 3.80; in test [1] (setting [5]) it was 4.10; in test [2] it was 4.10. The “(e) Ratio (c)/(b)” value in test [1] is given as 2.0. Moreover, in test [1], the “change of ratio (c)/(b) upon guanidinylation” value (“change of ratio” below) is “decreases”.

Consider `N=C(N)NC[C@@H]1O[C@H](O[C@H]2[C@@H](O)[C@H](O[C@@H]3[C@@H](O)[C@H](NC(=N)N)C[C@H](NC(=N)N)[C@H]3O[C@H]3O[C@H](CNC(=N)N)[C@@H](O)[C@H](O)[C@H]3NC(=N)N)O[C@@H]2CO)[C@H](NC(=N)N)[C@@H](O)[C@@H]1O` [guanidino-neomycin B, Guanidino Neomycin], for which the “inhibition of HIV replication, activity relative to parent aminoglycoside” value in the test with HIV-1 is listed as “approximately 100 times”. In addition, the pIC50 in test [1] (setting [3]) is 6.05; in test [1] (setting [4]), 5.35; in test [1] (setting [5]), 6.10; in test [2] it was 5.89. In test [1], the “(e) Ratio (c)/(b)” value came to 5.6. Moreover, in test [2] (setting [6]), the IC50 stood at 0.2 µM.

Take `NC[C@H]1O[C@H](O[C@H]2[C@H](O)[C@@H](O[C@H]3O[C@H](CO)[C@@H](O)[C@H](N)[C@H]3O)[C@H](N)C[C@@H]2N)[C@H](O)[C@@H](O)[C@@H]1O` [KanamycinA, Kanamycin A]: the pIC50 was 3.12 in test [1] (setting [3]), 2.89 in test [1] (setting [4]), 3.15 in test [1] (setting [5]) and 3.12 in test [2]. For the same molecule, the “(e) Ratio (c)/(b)” value in test [1] was 1.9. The “change of ratio” value in test [1] is “decreases”. Moreover, in test [2] (setting [7]), the IC50 worked out at 100 µM.

Consider `NC(N)=NC[C@@H]1O[C@H](O[C@H]2[C@H](O)[C@@H](O[C@H]3O[C@@H](CO)[C@H](O)[C@@H](N=C(N)N)[C@@H]3O)[C@H](N=C(N)N)C[C@@H]2N=C(N)N)[C@@H](O)[C@H](O)[C@H]1O` [guanidino-kanamycinA, Guanidino Kanamycin A], for which the pIC50 in test [1] (setting [3]) is 4.26; in test [1] (setting [4]) it was 4.22; in test [1] (setting [5]) it was 4.30; in test [2] it was 4.19. Besides, the “(e) Ratio (c)/(b)” value in test [1] amounted to 1.2. Further, the IC50 in test [2] (setting [6]) turned out to be 8 µM.

With `N=C(N)NCC1OC(OC2C(NC(=N)N)CC(NC(=N)N)C(OC3OC(CO)C(O)C(NC(=N)N)C3O)C2O)C(NC(=N)N)C(O)C1O` (centres unmarked) [guanidino-kanamycinB, Guanidino Kanamycin B], the pIC50 in test [1] (setting [3]) is 5.46; in test [1] (setting [4]), 5.33; in test [1] (setting [5]) it was 5.52; in test [2] it was 5.46. The “(e) Ratio (c)/(b)” value in test [1] amounted to 1.6.

Consider `NC[C@@H]1O[C@H](O[C@H]2[C@@H](O)[C@H](O[C@@H]3[C@@H](O)[C@H](N)C[C@H](N)[C@H]3O[C@H]3O[C@H](CO)[C@@H](O)[C@H](O)[C@H]3N)O[C@@H]2CO)[C@H](N)[C@@H](O)[C@@H]1O` [Paromomycin], for which the pIC50 in test [1] (setting [3]) is 4.22; in test [1] (setting [4]) it was 3.96; in test [1] (setting [5]) it was 4.26; in test [2], 4.19. Besides, the “(e) Ratio (c)/(b)” value in test [1] was found to be 2.0. Further, the “change of ratio” value in test [1] was “decreases”. The “increase in inhibitory activity upon guanidinylation relative to the parent compound” value in test [2] is 5 fold.

With `N=C(N)NCC1OC(OC2C(CO)OC(OC3C(O)C(NC(=N)N)CC(NC(=N)N)C3OC3OC(CO)C(O)C(O)C3NC(=N)N)C2O)C(NC(=N)N)C(O)C1O` (centres unmarked) [guanidino-paromomycin, Guanidino Paromomycin], the pIC50 in test [1] (setting [3]) is 4.80; in test [1] (setting [4]) it was 4.70; in test [1] (setting [5]), 4.85; in test [2], 4.74. For the same molecule, in test [1], the “(e) Ratio (c)/(b)” value amounted to 1.4.

For the molecule `NC[C@H]1O[C@H](O[C@H]2[C@H](O)[C@@H](O[C@H]3O[C@H](CO)[C@@H](O)[C@H](N)[C@H]3O)[C@H](N)C[C@@H]2N)[C@H](N)C[C@@H]1O` [Tobramycin], the pIC50 in test [1] (setting [3]) was 4.30; in test [1] (setting [4]), 3.85; in test [1] (Solid Phase Assay, competing DNA (Table 2), read-out: IC50 with DNA), 4.26; in test [1] (Solid Phase Assay, competing tRNA (Table 2), read-out: IC50 with tRNA) it was 5.96; in test [1] (Solid Phase Assay, no competitor (Table 2), read-out: IC50), 4.30; in test [1] (setting [5]), 4.35. Also, the pIC50 in test [2] was 4.36. Besides, in test [1], the “(e) Ratio (c)/(b)” value was 3.1. Also, the “change of ratio” value in test [1] is “decreases”. Besides, the “activity in the presence of competing nucleic acids” value in test [1] (solid phase assay, competing DNA / tRNA) is listed as “significantly lower activity in the presence of tRNA”. For the same molecule, in test [2] (setting [7]), the IC50 worked out at 10 µM.

Take `NC[C@@H]1O[C@H](O[C@H]2[C@@H](O)[C@H](O[C@@H]3[C@@H](O)[C@H](N)C[C@H](N)[C@H]3O[C@H]3O[C@H](CN)[C@@H](O)[C@H](O)[C@H]3N)O[C@@H]2CO)[C@H](N)[C@@H](O)[C@@H]1O` [Neomycin B, Neomycin]: the pIC50 was 5.10 in test [1] (setting [3]), 4.80 in test [1] (setting [4]), 5.22 in test [1] (setting [5]) and 5.22 in test [2]. The “(e) Ratio (c)/(b)” value in test [1] amounted to 2.7. In addition, the “change of ratio” value in test [1] was “increases”. For the same molecule, in test [2] (setting [7]), the IC50 was 1 µM. Further, the “increase in inhibitory activity upon guanidinylation relative to the parent compound” value in test [2] stood at 5 fold.

As a reminder, the pIC50 is −log10 of the IC50, conventionally taken in molar units. The term IC50 denotes the concentration at which inhibition is half-maximal.
